The values that follow come from US20060084675A1, “Combined treatment with artesunate and an epidermal growth factor receptor kinase inhibitor” (priority 2004, published 2006).

As a reminder, the IC50 is the concentration needed to halve the response being measured. What is called inhibition is the relative decrease from the control value, in per cent.

Series [1] has as its system G-599GM cell line. Briefly: Growth inhibition assay (incl. isobolographic analysis). The note with it: Homo sapiens; for IC50: read-out: IC50, drug alone. The class given is cell-based. On the procedure:
(§1) Nine established GBM cell lines derived from histopathologically confirmed neurosurgical specimens obtained in the Department for Neurosurgery, University of Gottingen, Germany, were maintained in RPMI 1640 medium (BioWhittaker, Walkersville, Md., U.S.A.) supplemented with 10% heat-inactivated fetal calf serum and incubated in a humidified 5% CO2 atmosphere at 37° C. Medium was exchanged twice weekly, and cells were passaged upon reaching subconfluence. At the beginning of the study, all cell lines were beyond their 20th passage. The in vitro response to cytostatic drugs was evaluated by means of a growth inhibition assay. Aliquots of 5×10^3 cells/ml were seeded in culture medium, and drugs were added at different concentrations. Cells were counted 10 days after seeding. These growth curves represent the net outcome of cell proliferation and cell death. Cell numbers were quantitated each in eight independent determinations. […] G. and Peckham, M. J. (1979) Int. J. Radiat. Oncol. Biol. Phys. 5:85-91; Berenbaum, M. C. (1981) Adv. Cancer Res. 35:269-335).

Series [2] relates to 14 GBM cell lines. Nature of the series: Growth inhibition assay, panel. The class given is cell-based. The settings on record: Homo sapiens; ART alone; range over 14 cell lines.
Description: as §1, with “(1997) J. Biol. Chem. 272:2927-2935). The cell lines were provided by Dr. W. K. Cavenee (Ludwig Institute for Cancer Research, San Diego, Calif., U.S.A.). Cell culture conditions of these cell lines were as described ([…], et al. (1996) Cancer Res. 56:5079-5086). Nine” for “Nine”

For series [3] the following is noted: intravenous application of 2 mg/kg; cited from earlier work.
The test system of series [4] is U-87MG cells. Nature of the series: Growth inhibition assay. The class given is cell-based. The settings on record: Homo sapiens, 240 h, single drug, cells counted 10 days after seeding, read-out: IC50 calculated from the dose-response curves. On the procedure:
(§2) The establishment of the parental human GBM cell line U-87MG and its derivatives which overexpress exogenous wild-type epidermal growth factor receptor (U-87MG.WT-2N), tyrosine kinase-deficient EGFR (U-87MG.DK-2N), EGFR with a genomic deletion of exons 2 to 7 (U-87MG.ΔEGFR), or control expression vector (U-87MG.LUX), respectively, has been described elsewhere (Huang, H-J S et al. (1997) J. Biol. Chem. 272:2927-2935). The cell lines were provided by Dr. W. K. Cavenee (Ludwig Institute for Cancer Research, San Diego, Calif., U.S.A.). Cell culture conditions of these cell lines were as described (Nagane M, et al. (1996) Cancer Res. 56:5079-5086).
(§3) The in vitro response to cytostatic drugs was evaluated by means of a growth inhibition assay. Aliquots of 5×10^3 cells/ml were seeded in culture medium, and drugs were added at different concentrations. Cells were counted 10 days after seeding. These growth curves represent the net outcome of cell proliferation and cell death. Cell numbers were quantitated each in eight independent determinations.

The test system of series [5] is U-87MG.WT-2N cells. Nature of the series: Growth inhibition assay. The class given is cell-based. The settings on record: Homo sapiens. On the procedure:
as §2, §3

The subject of series [6] is G-1265GM. Briefly: Growth inhibition assay. The class given is cell-based. The note with it: Homo sapiens. On the procedure:
Nine established GBM cell lines derived from histopathologically confirmed neurosurgical specimens obtained in the Department for Neurosurgery, University of Gottingen, Germany, were maintained in RPMI 1640 medium (BioWhittaker, Walkersville, Md., U.S.A.) supplemented with 10% heat-inactivated fetal calf serum and incubated in a humidified 5% CO2 atmosphere at 37° C. Medium was exchanged twice weekly, and cells were passaged upon reaching subconfluence. At the beginning of the study, all cell lines were beyond their 20th passage.
as §3

For series [7] the following is noted: patients with advanced solid malignancies, phase I; cited from earlier work.

Where “and” joins values, the source holds several entries; their conditions need not be identical. Equal entries are not always repeated. Where two headings read alike, the source gives them in different places.

As to `C[C@H]1[C@H](OC(=O)CCC(=O)O)O[C@@H]2O[C@@]3(C)CC[C@H]4[C@H](C)CC[C@@H]1[C@@]24OO3` [ART, artesunate], the values for the IC50 in series [1] (single drug) and in series [2] were 4.2 µM and 1.5 to 18.5 µM, respectively. The peak plasma concentration in series [3] was 6.88 ± 4.69 µM.
For `C#Cc1cccc(Nc2ncnc3cc(OCCOC)c(OCCOC)cc23)c1` [OSI-774, [6,7-bis(2-methoxyethoxy)-4-quinazolin-4-yl]-(3-ethynylphenyl)amine], the IC50 was 8.6 µM in series [4] and 1.3 µM in series [1]. In addition, the inhibition at 1 µM is 33.8% in series [5], 23.4% in series [1] (read-out: growth inhibition) and -1.79% in series [6]. In addition, the “average minimal steady state plasma concentration” value in series [7] is 1.2 μg/ml and 3 μM.
